Where a name gives a salt, the structure may show the parent alone.
Assay: Drug release pattern analysis (dialysis bag, phosphate-buffered saline)
Type: physicochemical
Conditions: within 24 h; body temperature (37° C.); PBS pH 7.4; FIG. 7
Procedure: The core/shell nanoparticle composite prepared in Example 1-1 was sampled, placed in a dialysis bag (molecular weight filtration limit: 100,000), and impregnated with 30 ml of phosphate-buffered saline (PBS, pH 7.4). The amount of the sampled nanoparticle composite was determined such that 10 mg of the doxorubicin-HCl was present in the sample. The phosphate-buffered saline was stirred at 100 rpm while maintaining the temperature at 37.5° C. After the lapse of a predetermined time, 5 ml of the phosphate-buffered saline was sampled. The amount of the drug released was measured by […]. After sampling, the remaining phosphate-buffered saline was completely removed and replaced with a fresh one. The amount of the doxorubicin-HCl released was measured using a UV-Vis spectrometer (G1103A, Agilent, USA).
For comparison, each of doxorubicin-HCl (10 mg) and the liposome-based core/shell nanoparticle composite prepared in Comparative Example 1 (containing 10 mg of doxorubicin-HCl) was added to 10 mL of distilled water. The release behavior of the drug in the aqueous solution was measured by the same procedure as described above.

COc1cccc2c1C(=O)c1c(O)c3c(c(O)c1C2=O)C[C@@](O)(C(=O)CO)C[C@@H]3O[C@H]1C[C@H](N)[C@H](O)[C@H](C)O1 [doxorubicin-HCl]
drug released into phosphate-buffered saline: > 95%

From patent US20200046647A1, “EXOSOME-BASED NANOPARTICLE COMPOSITE AND METHOD FOR PREPARING THE SAME” (Korea University Research and Business Foundation, Sejong …, priority 2017, published 2020)
